According to BigSolDB 2.1:

CC1(C)[C@@H](O)CC[C@]2(C)[C@H]3C(=O)C=C4[C@@H]5C[C@@](C)(C(=O)O)CC[C@]5(C)CC[C@@]4(C)[C@]3(C)CC[C@@H]12
Conditions | solubility (mole fraction)
in 1,4-dioxane, 288.15 K | 0.0269
in 1,4-dioxane, 293.15 K | 0.028
in 1,4-dioxane, 298.15 K | 0.0297
in 1,4-dioxane, 303.15 K | 0.0315
in 1,4-dioxane, 308.15 K | 0.0327
in 1,4-dioxane, 313.15 K | 0.0337
in 1,4-dioxane, 318.15 K | 0.0349
in 1,4-dioxane, 323.15 K | 0.036
in DMF, 278.15 K | 0.0467
in DMF, 283.15 K | 0.0474
in DMF, 288.15 K | 0.0515
in DMF, 293.15 K | 0.0552
in DMF, 298.15 K | 0.0576
in DMF, 303.15 K | 0.0598
in DMF, 308.15 K | 0.0643
in DMF, 313.15 K | 0.0678
in DMF, 318.15 K | 0.0716
in DMF, 323.15 K | 0.0763
in THF, 278.15 K | 0.0764
in THF, 283.15 K | 0.077
in THF, 288.15 K | 0.0774
in THF, 293.15 K | 0.078
in THF, 298.15 K | 0.0787
in THF, 303.15 K | 0.0794
in THF, 308.15 K | 0.0804
in THF, 313.15 K | 0.0815
in THF, 318.15 K | 0.0827
in THF, 323.15 K | 0.0842
in acetone, 278.15 K | 0.00321
in acetone, 283.15 K | 0.00347
in acetone, 288.65 K | 0.00365
in acetone, 293.15 K | 0.0038
in acetone, 298.15 K | 0.00414
in acetone, 303.15 K | 0.00438
in acetone, 308.15 K | 0.00468
in acetone, 313.15 K | 0.00495
in acetone, 318.15 K | 0.00543
in acetone, 323.15 K | 0.00598
in ethanol, 278.15 K | 0.0106
in ethanol, 283.15 K | 0.0112
in ethanol, 288.65 K | 0.0125
in ethanol, 293.15 K | 0.0132
in ethanol, 298.15 K | 0.0138
in ethanol, 303.15 K | 0.0143
in ethanol, 308.15 K | 0.0148
in ethanol, 313.15 K | 0.0152
in ethanol, 318.15 K | 0.0158
in ethanol, 323.15 K | 0.0168
in isobutyl acetate, 278.15 K | 0.00229
in isobutyl acetate, 283.15 K | 0.00232
in isobutyl acetate, 288.15 K | 0.00239
in isobutyl acetate, 293.15 K | 0.00242
in isobutyl acetate, 298.15 K | 0.00247
in isobutyl acetate, 303.15 K | 0.00256
in isobutyl acetate, 308.15 K | 0.00273
in isobutyl acetate, 313.15 K | 0.00278
in isobutyl acetate, 318.15 K | 0.00288
in isobutyl acetate, 323.15 K | 0.00314
in isopropanol, 278.15 K | 0.00857
in isopropanol, 283.15 K | 0.00946
in isopropanol, 288.65 K | 0.0114
in isopropanol, 293.15 K | 0.012
in isopropanol, 298.15 K | 0.0129
in isopropanol, 303.15 K | 0.0139
in isopropanol, 308.15 K | 0.0149
in isopropanol, 313.15 K | 0.0156
in isopropanol, 318.15 K | 0.0164
in isopropanol, 323.15 K | 0.0174
in methanol, 278.15 K | 0.00229
in methanol, 283.15 K | 0.00257
in methanol, 288.65 K | 0.00295
in methanol, 293.15 K | 0.00329
in methanol, 298.15 K | 0.00373
in methanol, 303.15 K | 0.00427
in methanol, 308.15 K | 0.00486
in methanol, 313.15 K | 0.00562
in methanol, 318.15 K | 0.00675
in methanol, 323.15 K | 0.00755
in methyl acetate, 278.15 K | 0.00182
in methyl acetate, 283.15 K | 0.00196
in methyl acetate, 288.15 K | 0.00203
in methyl acetate, 293.15 K | 0.00227
in methyl acetate, 298.15 K | 0.00244
in methyl acetate, 303.15 K | 0.00259
in methyl acetate, 308.15 K | 0.0027
in methyl acetate, 313.15 K | 0.00293
in methyl acetate, 318.15 K | 0.00319
in methyl acetate, 323.15 K | 0.0034
in n-butyl acetate, 278.15 K | 0.00286
in n-butyl acetate, 283.15 K | 0.00297
in n-butyl acetate, 288.15 K | 0.00315
in n-butyl acetate, 293.15 K | 0.00327
in n-butyl acetate, 298.15 K | 0.00333
in n-butyl acetate, 303.15 K | 0.00344
in n-butyl acetate, 308.15 K | 0.0035
in n-butyl acetate, 313.15 K | 0.00354
in n-butyl acetate, 318.15 K | 0.00359
in n-butyl acetate, 323.15 K | 0.00364
in n-propanol, 278.15 K | 0.0131
in n-propanol, 283.15 K | 0.0146
in n-propanol, 288.65 K | 0.016
in n-propanol, 293.15 K | 0.0174
in n-propanol, 298.15 K | 0.0186
in n-propanol, 303.15 K | 0.0194
in n-propanol, 308.15 K | 0.0206
in n-propanol, 313.15 K | 0.0218
in n-propanol, 318.15 K | 0.0223
in n-propanol, 323.15 K | 0.023
in n-propyl acetate, 278.15 K | 0.00157
in n-propyl acetate, 283.15 K | 0.00176
in n-propyl acetate, 288.15 K | 0.00193
in n-propyl acetate, 293.15 K | 0.00211
in n-propyl acetate, 298.15 K | 0.00232
in n-propyl acetate, 303.15 K | 0.00245
in n-propyl acetate, 308.15 K | 0.00261
in n-propyl acetate, 313.15 K | 0.00273
in n-propyl acetate, 318.15 K | 0.00284
in n-propyl acetate, 323.15 K | 0.00295
